Calls of active or inactive are those of the source.

Experiment [1] addresses Acyl-homoserine lactone acylase PvdQ (Pseudomonas aeruginosa (strain LESB58), UniProt Q9I194). Nature of the experiment: PvdQ acylase enzyme activity blockers – biochemical, fluorescence, plate reader and imaging, cherry-picks, dose response (AID 493231).
Experiment [2] deals with T1, Tyrosine-protein phosphatase non-receptor type 7 (Homo sapiens, UniProt P35236).
T1 sequence (P35236 whole entry): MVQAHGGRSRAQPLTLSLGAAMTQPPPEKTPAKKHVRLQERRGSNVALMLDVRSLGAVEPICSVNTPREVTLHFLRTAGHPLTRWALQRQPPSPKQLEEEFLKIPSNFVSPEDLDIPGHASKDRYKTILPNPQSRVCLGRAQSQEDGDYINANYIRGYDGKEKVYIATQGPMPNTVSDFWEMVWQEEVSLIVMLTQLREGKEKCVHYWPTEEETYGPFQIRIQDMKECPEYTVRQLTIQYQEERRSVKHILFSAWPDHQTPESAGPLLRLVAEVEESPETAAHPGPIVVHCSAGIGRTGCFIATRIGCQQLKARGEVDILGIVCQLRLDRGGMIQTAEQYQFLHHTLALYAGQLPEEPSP
Nature of the experiment: SAR analysis of chemical inhibitors of HePTP using a Fluorescent assay - Set 2. [Related pubchem assays (depositor defined):AID1059, AID1077, AID1661, AID2085, AID521]. Format: functional.

Experiment [3] addresses T2, Dual specificity protein phosphatase 3 (Homo sapiens, UniProt P51452). Nature of the experiment: SAR VHR1 Fluorescent Assay for In Vitro dose response studies Set 2. [Related pubchem assays (depositor defined):AID1654, AID1661, AID1878]. The experiment is classed as functional.
Experiment [4] addresses Cyclin-dependent kinase 5/CDK5 activator 1 (Homo sapiens, UniProt Q00535). Nature of the experiment: blockade of human CDK5 activity – biochemical, cherry-picked samples, set 2, dose response (AID 504545).
The target in experiment [5] is Neutrophil collagenase (Homo sapiens, UniProt P22894). Nature of the experiment: potency against MMP13, MMP2, MMP3, MMP14 – biochemical, probe development, late stage results, selectivity assay for MMP13 inhibitor project, late-stage follow-up, panel member MMP-8 [IC50 Assay] (AID 2067).
Experiment [6] deals with Collagenase 3 (Homo sapiens, UniProt P45452). Nature of the experiment: potency against MMP13, MMP2, MMP3, MMP14 – biochemical, probe development, late stage results, selectivity assay for MMP13 inhibitor project, late-stage follow-up, panel member MMP-13 [IC50 Assay] (AID 2067).
The target in experiment [7] is T2, Dual specificity protein phosphatase 3. Nature of the experiment: inhibition constants for human DUSP3 – biochemical, colorimetric, SAR follow-up (AID 2004).
Experiment [8] deals with Intestinal-type alkaline phosphatase (Homo sapiens, UniProt P09923). Nature of the experiment: Dose Response confirmation of uHTS hits from a small molecule inhibitors of human intestinal alkaline phosphatase via a luminescent assay. [Related pubchem assays (depositor defined):AID2544, AID2574]. Format: functional.
Sequence of Intestinal-type alkaline phosphatase (P09923 whole entry): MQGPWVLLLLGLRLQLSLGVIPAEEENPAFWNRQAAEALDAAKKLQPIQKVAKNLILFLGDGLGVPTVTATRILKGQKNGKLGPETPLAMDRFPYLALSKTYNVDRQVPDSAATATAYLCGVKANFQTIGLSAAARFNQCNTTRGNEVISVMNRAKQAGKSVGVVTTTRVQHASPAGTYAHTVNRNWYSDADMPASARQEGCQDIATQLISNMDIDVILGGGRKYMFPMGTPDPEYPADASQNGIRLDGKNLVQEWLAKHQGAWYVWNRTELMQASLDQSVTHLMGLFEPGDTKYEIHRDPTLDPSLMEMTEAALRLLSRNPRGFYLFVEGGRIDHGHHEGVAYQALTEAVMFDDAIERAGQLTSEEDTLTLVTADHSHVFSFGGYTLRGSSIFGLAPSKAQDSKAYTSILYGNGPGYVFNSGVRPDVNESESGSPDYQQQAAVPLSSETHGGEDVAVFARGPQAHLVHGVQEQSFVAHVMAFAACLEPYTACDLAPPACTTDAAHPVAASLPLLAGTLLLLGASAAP
Experiment [9] has as its target Kappa-type opioid receptor (Homo sapiens, UniProt P41145). Nature of the experiment: SAR analysis of small molecule agonists of the kappa opioid receptor via a luminescent beta-arrestin assay - Set 2. [Related pubchem assays (depositor defined):AID1777, AID1785, AID1786, AID1966, AID2133, AID2136, AID2284, AID449737]. The experiment is classed as functional.
The test system of experiment [10] is HEK293. Nature of the experiment: inhibition of NOD1-driven NF-kB reporter – cell-based, luminescence, uHTS, primary screen (AID 1578). The experiment is classed as functional. Conditions: Homo sapiens.
Experiment [11] deals with HEK293. Nature of the experiment: cells. Format: functional, cell-based. Conditions: Homo sapiens.
The subject of experiment [12] is HEK293. Nature of the experiment: cells. The experiment is classed as functional, cell-based. Conditions: Homo sapiens. This is another data set of the same source.
Experiment [13] deals with Nucleotide-binding oligomerization domain-containing protein 2 (Homo sapiens, UniProt Q9HC29). Nature of the experiment: inhibition of NOD2-driven NF-kB reporter – cell-based, luminescence, uHTS, HEK293 (AID 1566). Format: functional.
Sequence of Nucleotide-binding oligomerization domain-containing protein 2 (Q9HC29 whole entry, the tested form may be a part): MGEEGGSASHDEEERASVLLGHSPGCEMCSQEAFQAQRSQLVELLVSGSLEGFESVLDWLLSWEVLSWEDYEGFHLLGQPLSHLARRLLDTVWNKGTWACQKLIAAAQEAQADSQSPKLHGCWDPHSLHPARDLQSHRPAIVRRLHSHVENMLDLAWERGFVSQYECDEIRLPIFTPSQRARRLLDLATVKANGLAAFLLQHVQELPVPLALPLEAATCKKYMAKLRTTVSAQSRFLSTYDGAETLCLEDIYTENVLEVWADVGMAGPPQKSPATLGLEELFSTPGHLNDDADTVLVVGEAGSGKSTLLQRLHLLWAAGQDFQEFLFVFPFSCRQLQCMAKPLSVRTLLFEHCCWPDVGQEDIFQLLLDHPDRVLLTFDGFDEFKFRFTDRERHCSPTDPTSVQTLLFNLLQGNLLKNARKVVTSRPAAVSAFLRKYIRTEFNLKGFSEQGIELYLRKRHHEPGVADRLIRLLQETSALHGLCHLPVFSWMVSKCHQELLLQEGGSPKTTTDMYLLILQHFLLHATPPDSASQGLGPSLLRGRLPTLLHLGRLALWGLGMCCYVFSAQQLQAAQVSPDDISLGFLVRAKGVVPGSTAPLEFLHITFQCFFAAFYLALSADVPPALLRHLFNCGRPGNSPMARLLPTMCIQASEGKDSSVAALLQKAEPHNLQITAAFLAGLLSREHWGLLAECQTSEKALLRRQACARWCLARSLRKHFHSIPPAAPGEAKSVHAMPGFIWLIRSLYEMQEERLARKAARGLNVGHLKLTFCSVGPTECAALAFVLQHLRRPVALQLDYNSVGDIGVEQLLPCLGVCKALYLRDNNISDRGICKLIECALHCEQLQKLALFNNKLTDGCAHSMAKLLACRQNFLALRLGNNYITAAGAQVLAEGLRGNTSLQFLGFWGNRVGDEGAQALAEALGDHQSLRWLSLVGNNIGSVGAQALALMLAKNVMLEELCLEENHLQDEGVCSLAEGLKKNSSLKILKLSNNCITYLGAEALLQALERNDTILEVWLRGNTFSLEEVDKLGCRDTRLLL
Experiment [14] concerns HEK293. Nature of the experiment: NOD2 signaling inhibitors in MDP-stimulated cells, cell-based, uHTS, luminescence (AID 2001). The experiment is classed as functional. Conditions: Homo sapiens.
For experiment [15], the system named is HEK293. Nature of the experiment: cells. Format: functional, cell-based. Conditions: Homo sapiens. This is another data set of the same source.
Experiment [16] concerns the target Scavenger receptor class B member 1 (Mus musculus, UniProt Q61009). Nature of the experiment: mouse SR-BI DiI-HDL uptake blockers – ldlA[mSR-BI] cells, fluorescence, cherry pick, dose response (AID 493194).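 Further: cellular uptake of fluorescent DiI-labeled HDL measured as cell fluorescence.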 The experiment is classed as functional, cell-based.
Experiment [17] has as its system INS1. Nature of the experiment: INS-1E survival protection against cytokine death – cell-based, luminescence, retest, dose response (AID 449756).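 Further: cell death triggered by IL-1 beta plus TNF-alpha plus IFN-gamma mixture; protective hits raise ATP signal compared with cytokine alone wells.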 Format: functional. Conditions: Rattus norvegicus.
Experiment [18] addresses Paired box protein Pax-8 (Homo sapiens, UniProt Q06710). Nature of the experiment: PAX8 transcriptional activity inhibition in RMG-I – RMG-I cells, luciferase, cherry-pick, dose response (AID 687027).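 Further: luciferase reporter driven by Pax8 target thyroperoxidase promoter measured by SteadyGlo luminescence.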 The experiment is classed as functional, cell-based.
Experiment [19] can be described thus: Luminescence Cell-Based Dose Response HTS to Identify Activators of Luciferase Translation or Activity in H4-C Neuroglioblastoma Cells. [Related pubchem assays: 1829 (Project Summary), 1814 (Primary HTS)]. The experiment is classed as functional.
Experiment [20] can be described thus: Luminescence Cell-Based Dose Retest to Confirm Activators of 5'UTR Stem-Loop Driven Alpha-Synuclein mRNA Translation in H4 Neuroglioblastoma Cells. [Related pubchem assays (depositor defined):AID1813, AID1829]. Format: functional.
Experiment [21] is described as follows: Luminescence Cell-Based Dose Response HTS to Identify Activators of 5'UTR Stem-Loop Driven Prion Protein mRNA Translation in H4-C Neuroglioblastoma Cells. [Related pubchem assays: 1829 (Project Summary), 1814 (Primary HTS)]. Format: functional.
The nature of experiment [22]: Luminescence Cell-Based Dose Confirmation HTS to Identify Activators of 5'UTR Stem-Loop Driven Alpha-Synuclein mRNA Translation in H4 Neuroglioblastoma Cells. [Related pubchem assays: 1829 (Project Summary), 1814 (Primary HTS)]. Format: functional.
Experiment [23] can be described thus: Luminescence Cell-Based Dose Response HTS to Identify Activators of Luciferase Translation or Activity in H4 […] Cells. [Related pubchem assays: 1829 (Project Summary), 1814 (Primary HTS)]. The experiment is classed as functional.
Experiment [24] has as its system H4. Nature of the experiment: Luminescence Cell-Based Dose Response HTS to Identify Activators of 5'UTR Stem-Loop Driven Prion Protein mRNA Translation in H4 Neuroglioblastoma Cells. [Related pubchem assays: 1829 (Project Summary), 1814 (Primary HTS)]. Format: functional. Conditions: Homo sapiens.
Experiment [25] deals with T1, Tyrosine-protein phosphatase non-receptor type 7. Format: functional.
Experiment [26] deals with Glyceraldehyde-3-phosphate dehydrogenase (Homo sapiens, UniProt P04406).
Experiment [27] has as its target T3, Dual specificity protein phosphatase 6 (Rattus norvegicus, UniProt Q64346).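 Further: in vitro confirmatory secondary MKP-3 assay designed to detect irreversible or slow-binding inhibitors; recombinant His-tagged rat MKP-3 acting on the substrate OMFP; inhibitor potency from reduced phosphatase rate.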
T3 sequence (Q64346 whole entry): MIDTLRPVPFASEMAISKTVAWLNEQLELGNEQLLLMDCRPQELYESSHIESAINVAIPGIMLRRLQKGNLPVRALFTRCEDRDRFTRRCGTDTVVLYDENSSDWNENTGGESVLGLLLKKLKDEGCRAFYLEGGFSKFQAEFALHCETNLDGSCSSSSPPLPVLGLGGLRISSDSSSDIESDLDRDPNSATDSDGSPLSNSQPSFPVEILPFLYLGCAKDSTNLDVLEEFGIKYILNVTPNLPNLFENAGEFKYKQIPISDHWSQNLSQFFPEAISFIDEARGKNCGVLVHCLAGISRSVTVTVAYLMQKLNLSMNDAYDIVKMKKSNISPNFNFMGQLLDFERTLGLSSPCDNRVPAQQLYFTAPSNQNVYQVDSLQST

Experiment [28] addresses Induced myeloid leukemia cell differentiation protein Mcl-1 (Homo sapiens, UniProt Q07820). The experiment is classed as functional.
Experiment [29] deals with Genome polyprotein (dengue virus type 2, UniProt P29990). Nature of the experiment: flavivirus cap methylation enzyme inhibition – biochemical, confirmation dose response, primary screen (AID 588689). Format: functional.
Experiment [30] concerns the target T4, Carboxy-terminal domain RNA polymerase II polypeptide A small phosphatase 1 (Homo sapiens, UniProt Q9GZU7).
T4 sequence (Q9GZU7 whole entry): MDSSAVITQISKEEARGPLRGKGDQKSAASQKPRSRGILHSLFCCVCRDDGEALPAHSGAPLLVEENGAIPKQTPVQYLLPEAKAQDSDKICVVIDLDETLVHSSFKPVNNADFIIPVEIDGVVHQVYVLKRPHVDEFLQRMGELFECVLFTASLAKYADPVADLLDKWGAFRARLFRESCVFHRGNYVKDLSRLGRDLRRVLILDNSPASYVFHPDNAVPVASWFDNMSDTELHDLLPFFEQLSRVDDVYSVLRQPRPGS
Nature of the experiment: CTDSP1 inhibitors, concentration-response, biochemical, absorbance readout, ultra-high-throughput screen actives (AID 540297). Format: functional.

Experiment [31] in a line: luciferase reporter signal suppression in cells – H4 neuroglioma cells, luminescence, dose response (AID 1990). Format: functional, cell-based.
Experiment [32] is described as follows: alpha-synuclein stem-loop luciferase translation blockers – H4 neuroglioma cells, luminescence, confirmation (AID 1988). The experiment is classed as functional, cell-based.
Experiment [33] concerns the target Voltage-dependent T-type calcium channel subunit alpha-1H (Homo sapiens, UniProt O95180). The experiment is classed as functional.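 Further: channel activity triggered by adding a high calcium stimulation buffer.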
Experiment [34] concerns Trypanosoma cruzi. Nature of the experiment: anti-trypanosomal activity in host cells – cell-based, plate reader, dry powder, set 3, dose response (AID 493197). Format: functional.
Experiment [35] concerns the target Melanin-concentrating hormone receptor 1 (Homo sapiens, UniProt Q99705). Nature of the experiment: Late-stage fluorescence-based counterscreen for antagonists of the G-protein coupled receptor 7 (GPR7): cell-based dose response assay to identify antagonists of the melanin-concentrating hormone receptor 1 (MCHR1). [Related pubchem assays (depositor defined):AID1861, AID1880, AID1952, AID2148, AID2251, AID2257, AID485339]. Format: functional. On the technique in general: The purpose of a counterscreen is to sort out artefacts and off-target activity.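 Further: stimulated with 30 nM MCH peptide agonist.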

In experiment [36] the target is T5, Neuropeptides B/W receptor type 1 (Homo sapiens, UniProt P48145).
T5 sequence (P48145 whole entry): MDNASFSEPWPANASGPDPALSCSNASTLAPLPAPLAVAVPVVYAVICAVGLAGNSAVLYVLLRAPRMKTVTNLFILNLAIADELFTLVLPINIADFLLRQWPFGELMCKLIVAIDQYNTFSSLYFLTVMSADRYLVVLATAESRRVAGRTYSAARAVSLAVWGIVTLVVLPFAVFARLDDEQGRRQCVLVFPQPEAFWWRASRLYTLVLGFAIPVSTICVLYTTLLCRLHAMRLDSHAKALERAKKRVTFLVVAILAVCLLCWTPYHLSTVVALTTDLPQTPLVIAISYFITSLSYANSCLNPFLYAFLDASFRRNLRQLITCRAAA
Nature of the experiment: human NPBW1 receptor blockade, IC50 – cell-based, fluorescence, dose response, late-stage follow-up (AID 463251). The experiment is classed as functional.

T2 sequence (P51452 whole entry): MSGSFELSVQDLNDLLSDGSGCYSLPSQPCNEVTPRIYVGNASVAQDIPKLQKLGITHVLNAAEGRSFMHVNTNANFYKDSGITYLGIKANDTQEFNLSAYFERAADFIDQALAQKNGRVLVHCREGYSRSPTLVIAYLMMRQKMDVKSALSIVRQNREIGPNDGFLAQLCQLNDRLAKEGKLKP
Sequence of Induced myeloid leukemia cell differentiation protein Mcl-1 (Q07820 whole entry): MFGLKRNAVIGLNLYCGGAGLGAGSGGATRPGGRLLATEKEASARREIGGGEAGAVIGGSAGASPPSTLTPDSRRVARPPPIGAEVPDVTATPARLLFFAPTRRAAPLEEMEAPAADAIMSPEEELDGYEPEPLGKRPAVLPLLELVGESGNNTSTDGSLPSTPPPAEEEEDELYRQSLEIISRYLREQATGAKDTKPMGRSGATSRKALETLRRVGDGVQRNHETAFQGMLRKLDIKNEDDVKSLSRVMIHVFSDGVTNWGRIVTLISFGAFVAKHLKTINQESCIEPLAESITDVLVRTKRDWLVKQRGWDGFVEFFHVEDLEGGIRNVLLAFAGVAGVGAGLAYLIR
Sequence of Paired box protein Pax-8 (Q06710 whole entry): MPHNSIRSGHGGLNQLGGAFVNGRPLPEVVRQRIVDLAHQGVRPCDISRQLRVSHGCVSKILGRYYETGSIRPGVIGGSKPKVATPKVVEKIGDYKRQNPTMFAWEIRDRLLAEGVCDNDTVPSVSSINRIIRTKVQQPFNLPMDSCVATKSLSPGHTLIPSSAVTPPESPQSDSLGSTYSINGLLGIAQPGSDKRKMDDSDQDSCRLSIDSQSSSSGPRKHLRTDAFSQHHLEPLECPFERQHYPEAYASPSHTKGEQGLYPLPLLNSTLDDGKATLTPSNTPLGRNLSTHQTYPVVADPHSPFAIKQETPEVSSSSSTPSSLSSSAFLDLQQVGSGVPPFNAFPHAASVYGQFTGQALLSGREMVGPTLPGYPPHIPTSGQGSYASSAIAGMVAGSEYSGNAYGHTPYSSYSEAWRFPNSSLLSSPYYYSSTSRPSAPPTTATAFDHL
Sequence of Melanin-concentrating hormone receptor 1 (Q99705 whole entry): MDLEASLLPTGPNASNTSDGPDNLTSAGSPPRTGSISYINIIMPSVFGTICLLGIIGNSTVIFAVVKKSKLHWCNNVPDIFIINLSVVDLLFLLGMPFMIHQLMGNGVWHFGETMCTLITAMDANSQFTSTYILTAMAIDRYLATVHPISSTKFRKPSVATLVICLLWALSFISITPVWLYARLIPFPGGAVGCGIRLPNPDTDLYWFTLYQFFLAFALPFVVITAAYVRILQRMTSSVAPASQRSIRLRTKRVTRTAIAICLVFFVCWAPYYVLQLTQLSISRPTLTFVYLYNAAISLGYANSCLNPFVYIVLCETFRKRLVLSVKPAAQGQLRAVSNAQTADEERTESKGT
Sequence of Scavenger receptor class B member 1 (Q61009 whole entry): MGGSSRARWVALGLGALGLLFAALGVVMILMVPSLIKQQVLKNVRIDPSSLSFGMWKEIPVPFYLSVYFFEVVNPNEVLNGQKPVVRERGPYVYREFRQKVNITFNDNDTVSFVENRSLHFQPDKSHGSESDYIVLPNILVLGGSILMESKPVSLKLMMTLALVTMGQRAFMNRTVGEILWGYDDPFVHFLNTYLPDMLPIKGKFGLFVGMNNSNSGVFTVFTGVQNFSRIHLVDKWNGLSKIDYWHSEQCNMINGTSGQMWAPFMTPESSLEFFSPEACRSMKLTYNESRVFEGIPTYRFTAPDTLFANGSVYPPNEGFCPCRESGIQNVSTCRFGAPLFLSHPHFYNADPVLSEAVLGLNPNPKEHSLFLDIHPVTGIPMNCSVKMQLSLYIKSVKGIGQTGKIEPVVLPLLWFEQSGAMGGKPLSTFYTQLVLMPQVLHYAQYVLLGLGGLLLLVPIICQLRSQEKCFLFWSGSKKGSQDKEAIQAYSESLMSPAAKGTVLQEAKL
Sequence of Acyl-homoserine lactone acylase PvdQ (Q9I194 24-193 limits assumed): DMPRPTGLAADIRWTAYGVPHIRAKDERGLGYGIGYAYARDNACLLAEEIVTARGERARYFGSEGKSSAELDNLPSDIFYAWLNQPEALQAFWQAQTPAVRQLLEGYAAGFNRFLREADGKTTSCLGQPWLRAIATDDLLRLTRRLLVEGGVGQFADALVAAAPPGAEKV
Sequence of Acyl-homoserine lactone acylase PvdQ (Q9I194 217-762 limits assumed): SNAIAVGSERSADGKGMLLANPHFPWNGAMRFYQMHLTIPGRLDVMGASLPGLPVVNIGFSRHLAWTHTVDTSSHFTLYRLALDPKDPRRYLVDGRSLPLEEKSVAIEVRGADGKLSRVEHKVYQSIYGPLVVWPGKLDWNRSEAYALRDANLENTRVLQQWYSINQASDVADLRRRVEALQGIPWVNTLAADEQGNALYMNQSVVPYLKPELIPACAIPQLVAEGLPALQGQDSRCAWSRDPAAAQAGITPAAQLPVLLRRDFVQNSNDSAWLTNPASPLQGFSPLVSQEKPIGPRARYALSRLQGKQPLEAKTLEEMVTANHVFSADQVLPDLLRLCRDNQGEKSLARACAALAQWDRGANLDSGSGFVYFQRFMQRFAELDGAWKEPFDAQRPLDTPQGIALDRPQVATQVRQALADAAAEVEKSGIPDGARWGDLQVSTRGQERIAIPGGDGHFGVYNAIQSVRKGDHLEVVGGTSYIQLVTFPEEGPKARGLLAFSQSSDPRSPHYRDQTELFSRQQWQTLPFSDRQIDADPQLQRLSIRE
Sequence of Cyclin-dependent kinase 5/CDK5 activator 1 (Q00535 whole entry): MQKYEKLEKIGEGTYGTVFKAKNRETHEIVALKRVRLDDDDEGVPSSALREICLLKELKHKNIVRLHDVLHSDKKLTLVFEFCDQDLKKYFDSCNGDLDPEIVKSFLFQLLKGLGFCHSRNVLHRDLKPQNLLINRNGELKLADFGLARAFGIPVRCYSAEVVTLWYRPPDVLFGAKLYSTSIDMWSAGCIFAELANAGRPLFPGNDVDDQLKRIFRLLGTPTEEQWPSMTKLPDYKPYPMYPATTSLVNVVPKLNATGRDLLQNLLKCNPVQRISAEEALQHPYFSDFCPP
Sequence of Cyclin-dependent kinase 5/CDK5 activator 1 (Q15078 whole entry, further chain): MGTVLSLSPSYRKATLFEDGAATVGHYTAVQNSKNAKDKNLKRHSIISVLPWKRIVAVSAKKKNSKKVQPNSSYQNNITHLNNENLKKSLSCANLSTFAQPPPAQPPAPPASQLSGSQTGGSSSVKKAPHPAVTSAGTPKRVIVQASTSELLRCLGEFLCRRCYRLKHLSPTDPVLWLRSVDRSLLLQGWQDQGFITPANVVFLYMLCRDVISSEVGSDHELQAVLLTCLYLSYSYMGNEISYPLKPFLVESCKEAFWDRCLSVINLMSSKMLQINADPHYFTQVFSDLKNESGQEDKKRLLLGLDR

As to `CC(C)N=C(NC#N)SCc1ccccc1F`, in [1], the AC50 was 10.8 µM (active).
On to `CCOc1ccc(-n2c(N)c(C(=O)NCc3ccco3)sc2=S)cc1`, for which the IC50 in [2] and in [3] was > 100 µM (inactive) each time.
Turning to `CCc1c(O)nc(N)nc1Nc1ccccc1Cl`, in experiment [4], the AC50 is 7.32 µM (active).
In the case of `C#CCSc1nc2c(c(=O)[nH]1)CCC2`, the IC50 was > 39.8 µM (active) in experiment [5] and > 39.8 µM (inactive) in experiment [6].
Regarding `O=C(O)C(Cc1ccccc1)NC(=S)Nc1ccccc1` (stereo unspecified), the Ki in experiment [7] is 28.8 µM (inactive).
As for `O=C(Cc1coc2ccc3ccccc3c12)NCc1ccccc1`, the IC50 in experiment [8] is > 100 µM (inactive).
In the case of `COC(=O)CN(Cc1cccs1)C(=O)c1cccnc1`, in experiment [9], the EC50 was > 20 µM (inactive).
For `COc1ccc(NC(=O)c2c(Nc3ccccc3)sc(C(=O)c3ccc(F)cc3)c2N)cc1`, the EC50 in experiment [10] and in [13] was > 20 µM (inactive) in each case. For the same molecule, the IC50 in experiment [11], in [12], in experiment [14] and in experiment [15] was > 20 µM (inactive) throughout. In addition, the concentration at half-maximal activity (AC50) in experiment [16] was 2.46 µM (active); in experiment [17], 2.91 µM (active); in experiment [18] it was 1.69 µM (active).
As for `N#Cc1cc2c(nc1SCC(=O)Nc1ccc(Cl)cc1)C1CCN2CC1`, the EC50 in [19] was 2.33 µM (active); in experiment [20] it was 2.86 µM (active); in [21], 20.1 µM (active); in [22] it was 5.38 µM (active); in [23], 27.9 µM (active); in [24] it was > 120 µM (not active).
For `Cc1ccc2c(c1Cl)NC(C(=O)O)C1CC(Sc3ccccc3[N+](=O)[O-])C(Cl)C21` (stereo unspecified), the half-maximal inhibitory concentration (IC50) was 13.7 µM (active) in experiment [25]; > 100 µM (not active) in [26]; 42.6 µM (active) in experiment [27]; 2.96 µM (active) in experiment [28]; 76.9 µM (active) in [29]; 2.97 µM (active) in experiment [30].
Turning to `Cc1ccc(Cn2nc(C)c(NC(=O)c3cc(-c4ccc5c(c4)OCO5)on3)c2C)cc1`, the EC50 in experiment [31] was > 120 µM (not active); in [32], 14 µM (active); in [33] it was 30 µM (active).
Consider `CCNC(=O)C1(C)CCCN(Cc2cccc(Oc3ccccc3)c2)C1` (stereo unspecified), for which the AC50 in experiment [34] is 45.6 µM (active).
On to `Cc1ccc(-n2ccc(Cl)c(Cl)c2=O)cc1`, for which the IC50 in experiment [35] and in [36] was > 20 µM (inactive) each time.

In general, AC50 refers to the midpoint of the concentration-response curve, whichever way the signal moves. What is called IC50 is the concentration at which inhibition is half-maximal. Broadly, the Ki is the dissociation constant of the complex between target and ligand, obtained from inhibition or displacement. A word on the EC50: it is the concentration that produces a half-maximal response.

Source of the values: ChEMBL document CHEMBL1201862, “PubChem BioAssay data set” (2004).
